Here are results for eleven compounds from patent US20240239775A1, “FXR REGULATOR, PREPARATION METHOD THEREFOR, PHARMACEUTICAL COMPOSITION THEREOF AND USE THEREOF” (QINGDAO RUIJI MEDICAL TECHNOLOGY CO., LTD., priority 2021, published 2024).

Bounds are passed on as bounds.

One data set relates to HepG2 cells. Briefly: Testing of TC/TG in HepG2 cells incubated with FFA (oleic acid and palmitate). In kind it is cell-based, human. As to conditions: 24 h; for reduction of the increase in TG level of HepG2 cell induced by oleic acid and palmitate / reduction of the increase in TC level of HepG2 cell induced by oleic acid and palmitate: 20 μM compound, 0.5 mmol/L FFA; for reduction of the increase in TG level of HepG2 cell induced by oleic acid and palmitate: FIG. 1A; for reduction of the increase in TC level of HepG2 cell induced by oleic acid and palmitate: FIG. 1B. The protocol:
Cell TC/TG was tested using Nanjing Jiancheng TG test kit and TC test kit. HepG2 cells were incubated with 0.5 mmol/L FFA (oleic acid and palmitate mixed at a ratio of 2:1) and a solvent or different concentrations (20 μM, 40 μM, 80 μM) of compounds for 24 h. The culture medium was discarded and the cells were washed once with 0.01 M PBS (pH 7.4). The cells were scraped off with a cell scraper. 2-5 mL of 0.01 M PBS (pH 7.4) was then added. The cell suspension was collected and then centrifuged at 1000×g, 4° C. for 10 min. According to the ratio of 10^6 cells/300-500 μL of homogenization medium, isopropyl alcohol was added for mechanical homogenization, such that the cells were thoroughly disrupted until there was no obvious cell precipitation. The cell solution was centrifuged at 10000×g, 4° C. for 10 min. The supernatant was taken and placed on ice for testing. 2.5 μL of distilled water, standard products or samples were well mixed with […] respectively. After incubation at 37° C. for 10 min, the absorbance value of each well was tested with a microplate reader at 510 nm. Calculation formula for TC/TG concentration: sample concentration (mmol/g protein)=(ODsample−ODblank)/(ODstandard−ODblank)×standard product concentration (mmol/L)/protein concentration (g protein/L).
Preparation of protein standard: a. 1.2 mL of standard protein solution was added to a tube of protein standard (30 mg BSA), and a 25 mg/mL standard protein solution was obtained after the protein standard was thoroughly dissolved. b. An appropriate amount of 25 mg/mL protein standard was diluted to the final concentration of 0.5 mg/mL. Preparation of BCA working solution: according to the number of samples, reagent A for the BCA working solution and reagent B for BCA working solution (v/v: 50:1) were well mixed to prepare an appropriate amount of BCA working solution. Determination of protein concentration: a. 0, 1, 2, 4, 8, 12, 16, and 20 μL of the protein standard were respectively added into the standard wells of the 96-well plate, and the diluted standard solution was then added to make up to 20 μL, which is equivalent to obtaining standard concentrations of 0, 0.025, 0.05, 0.1, 0.2, 0.3, 0.4, and 0.5 mg/mL, respectively. b. An appropriate volume of sample was added to the sample wells of the 96-well plate. If the sample is less than 20 μL, the diluted standard solution should be added to make up to 20 μL. c. […] was added to each well and the well plate was set still at 37° C. for 20-30 min. d. The absorbance at A562 nm was determined with a microplate reader. e. The protein concentrations of the samples were calculated according to the standard curves and the sample volumes used.

The target of another data set is T1, FXR (Homo sapiens, UniProt Q96RI1).
T1 construct: 5 μL of 20 nM FXR-LBD Complete Coregulator buffer G; purchased ThermoFisher PV4833
T1 sequence (Q96RI1 262-486 limits assumed): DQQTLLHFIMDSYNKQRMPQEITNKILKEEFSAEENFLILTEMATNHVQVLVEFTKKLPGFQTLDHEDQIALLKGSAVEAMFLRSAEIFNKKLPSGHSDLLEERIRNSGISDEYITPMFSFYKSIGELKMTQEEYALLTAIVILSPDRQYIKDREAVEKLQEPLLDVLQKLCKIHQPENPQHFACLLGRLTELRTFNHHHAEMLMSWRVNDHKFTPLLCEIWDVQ
In words: FXR antagonist screening by TR-FRET (LanthaScreen TR-FRET FXR co-activation assay kit). The class given is biochemical. The conditions noted are these: Table 1.1, FXR antagonistic activity; TR-FRET with CDCA; geometric means of at least two independent runs. A digest of the protocol:
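FXR-LBD (20 nM working solution) mixed with compound, CDCA (200 μM working solution) as agonist, Fluorescein-SRC2-2 and Tb-anti-GST antibody in Coregulator buffer G; 10 h at room temperature. Coactivator recruitment read by TR-FRET, triplicate wells.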
For orientation: In TR-FRET formats the signal depends on donor and acceptor labels being close together.

Data set [1] is described as follows: Cell proliferation inhibition (cytotoxicity) by MTT assay, HEK293A. In kind it is cell-based. As to conditions: human, HEK293A cells, 48 hours after administration, average of three independent repeated experiments. Here is the method: The human embryonic kidney cell line HEK293A was subcultured in a medium containing penicillin (final concentration: 100 U/mL), streptomycin (final concentration: 100 μg/mL) and 10% FBS, in a humidified atmosphere of 95% air and 5% carbon dioxide at a constant temperature of 37° C. When the cells were 90% confluent, the old culture medium was discarded and the cells were washed twice with 2 mL of PBS. After the PBS was discarded, 2 mL of 0.25% trypsin-0.25% EDTA mixed digestion solution was added. When it was observed under a microscope that the cells became round, 2 mL of complete culture medium was added quickly to stop the digestion. The cell solution was pipetted gently to collect cells. The cells were centrifuged at 800 rpm, 4° C. for 5 min, the supernatant was discarded, the cells were resuspended in complete culture medium and cultured in bottles, and the medium was changed every other day.
(§1) The cell proliferation inhibition ability of compounds was tested by MTT assay. HepG2 and HEK293 cells were inoculated in a 96-well plate at a density of 30%. After incubation for 18 h to allow the cells to adhere, the original culture medium was removed, a given concentration of the compound to be tested was added to each well, and an equal amount of DMSO was added to the control group. Three replicate wells were set up for each compound. 48 hours after administration, cell viability was tested by MTT assay. The blank group was the wells where no cells were added, and then its OD value was read at 490 nm with a microplate reader. Calculation formula for cell viability: cell viability (%)=(ODto be tested−ODblank)/(ODcontrol−ODblank)×100.
Background: Tetrazolium dyes change colour on reduction, which living cells bring about.

The nature of data set [2]: Cell proliferation inhibition (cytotoxicity) by MTT assay, HepG2. In kind it is cell-based. As to conditions: human, HepG2 cells, 48 hours after administration, average of three independent repeated experiments. The protocol: The human liver cancer cell line HepG2 was subcultured in a DMEM medium containing penicillin (final concentration: 100 U/mL), streptomycin (final concentration: 100 μg/mL) and 10% FBS under the same conditions as those in the subculture of HEK293A.
as §1

As for `CC(=O)C1=CC[C@H]2[C@@H]3CC=C4C[C@@H](O)CC[C@]4(C)[C@H]3CC[C@]12C` [Centatin, 1-((3S, 8R, 9S, 10R, 135, 14S)-3-hydroxy-10,13-dimethyl-2,3,4,7,8,9,10,11,12,13,14,15-dodecahydro-1H-cyclopenta[a]phenanthren-17-yl)ethan-1-one], in the data set on HepG2 cells, the “reduction of the increase in TG level of HepG2 cell induced by oleic acid and palmitate” value is listed as “significantly reduce”; the “reduction of the increase in TC level of HepG2 cell induced by oleic acid and palmitate” value was “significantly reduce”.
For `Cc1c(C(=O)O)oc2ccc(S(=O)(=O)N(CCc3ccccc3)c3ccc(Cc4ccccc4)cc3)cc12` [Example F27-S11, 3-methyl-5-(N-(4-benzylphenyl)-N-phenethylsulfamoyl)benzofuran-2-carboxylic acid], the melting point (in general, the temperature, or range, at which the solid turns liquid) was in the range of 301 to 302 °C. At FXR, the IC50 (usually the concentration that gives 50% inhibition) was in the range of 0.1 to 10 µM. Also, the CC50 (usually the concentration giving 50% cytotoxicity) at 48 h in data set [1] is over 160 µM. In data set [2], this compound came in with a CC50 at 48 h of over 160 µM.
As for `Cc1c(C(=O)O)oc2ccc(S(=O)(=O)N(CCc3ccccc3)c3ccc(Oc4ccccc4)cc3)cc12` [Example F27-S12, 3-methyl-5-(N-(4-phenoxyphenyl)-N-phenethylsulfamoyl)benzofuran-2-carboxylic acid], the IC50 on FXR is 0.1 to 10 µM. The CC50 at 48 h in data set [1] and in data set [2] was over 160 µM each time.
On to `Cc1c(C(=O)O)oc2ccc(S(=O)(=O)N(CCc3ccccc3)c3ccccc3N3CCN(C(=O)c4ccccc4)CC3)cc12` [Example F27-S96], for which the melting point lay in the range of 128 to 129 °C. The compound further yielded an IC50 against FXR of 0.1 to 10 µM. The CC50 at 48 h in data set [1] is over 160 µM. The compound further had a CC50 at 48 h in data set [2] of over 160 µM. In the data set with HepG2 cells, the “reduction of the increase in TG level of HepG2 cell induced by oleic acid and palmitate” value was “significantly reduce”; the “reduction of the increase in TC level of HepG2 cell induced by oleic acid and palmitate” value is on record as “significantly reduce”. Further, in the data set with HepG2 cells (HepG2, 20 μM, 40 μM, 80 μM), the “inhibitory effect on TC, dose dependence” value is “dose-dependent to some extent” and the “inhibitory effect on TG, dose dependence” value is “dose-dependent to some extent”.
As for `Cc1c(C(=O)O)oc2ccc(S(=O)(=O)N(CCc3ccccc3)Cc3ccccc3N3CCN(C(=O)N(C)C)CC3)cc12` [Example F27-S101, 3-methyl-5-(N-(2-(4-(dimethylcarbamoyl)piperazin-1-yl)benzyl)-N-phenethylsulfamoyl)benzofuran-2-carboxylic acid], the melting point was 118 to 119 °C. This compound yielded an IC50 on FXR of 0.1 to 10 µM. In data set [1], this compound returned a CC50 at 48 h of over 160 µM. This compound returned a CC50 at 48 h in data set [2] of over 160 µM.
Consider `Cc1c(C(=O)O)oc2ccc(S(=O)(=O)N(CCc3ccccc3)Cc3ccccc3N3CCN(S(C)(=O)=O)CC3)cc12` [Example F27-S102, 3-methyl-5-(N-(2-(4-(methylsulfonyl)piperazin-1-yl)benzyl)-N-phenethylsulfamoyl)benzofuran-2-carboxylic acid], for which the melting point is 150 to 151 °C. This compound registered an IC50 against FXR of 50 to 100 µM.
The corresponding values for `Cc1c(C(=O)O)oc2ccc(S(=O)(=O)N(CCc3ccccc3)Cc3ccccc3N3CCN(C(=O)CC(C)(C)C)CC3)cc12` [Example F27-S103] are 190 to 191 °C and 10 to 50 µM.
The corresponding values for `Cc1c(C(=O)O)oc2ccc(S(=O)(=O)N(CCc3ccccc3)Cc3ccccc3N3CCN(Cc4ccccc4)CC3)cc12` [Example F27-S104, 3-methyl-5-(N-(2-(4-benzylpiperazin-1-yl)benzyl)-N-phenethylsulfamoyl)benzofuran-2-carboxylic acid] are 154 to 155 °C and 50 to 100 µM.
`Cc1c(C(=O)O)oc2ccc(S(=O)(=O)N(CCc3ccccc3)Cc3ccccc3N3CCN(C(=O)c4ccccc4)CC3)cc12` [Example F27-S105, 3-methyl-5-(N-(2-(4-benzoylpiperazin-1-yl)benzyl)-N-phenethylsulfamoyl)benzofuran-2-carboxylic acid] had a melting point of 163 to 164 °C. The same compound registered an IC50 against FXR of 0.1 to 10 µM. The CC50 at 48 h in data set [1] was over 160 µM. Moreover, the CC50 at 48 h in data set [2] was over 160 µM.
Take `Cc1ccc(C)c(OCCCC(C)(C)C(=O)NCC(=O)c2ccc(O)cc2)c1` [SIPI-7623, 5-(2,5-dimethylphenoxy)-N-(2-(4-hydroxyphenyl)-2-oxoethyl)-2,2-dimethylpentanamide]: in the data set with HepG2 cells, the “reduction of the increase in TG level of HepG2 cell induced by oleic acid and palmitate” value was “significantly reduce”; the “reduction of the increase in TC level of HepG2 cell induced by oleic acid and palmitate” value was “significantly reduce”.
For the compound `C/C=C1\C(=O)C[C@H]2[C@@H]3CCC4=CC(=O)CC[C@]4(C)[C@H]3CC[C@]12C` [Z-GS], in the data set on HepG2 cells, the “reduction of the increase in TG level of HepG2 cell induced by oleic acid and palmitate” value is “significantly reduce”; the “reduction of the increase in TC level of HepG2 cell induced by oleic acid and palmitate” value is given as “significantly reduce”.
